Reference: PubChem BioAssay AID687005 (Broad Institute, 2013)
Results filed as inconclusive are left out. The source made the active and inactive calls.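 How the source made its calls: active means Compounds that reduce signal, with fitted half-maximal dose at or under twice the top valid tested dose; inconclusive means Poor fit, or flat curve losing 30 to 70% of signal; inactive means Potency past limit, flat within 30%, or opposite direction.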

Assay: HEK293T cell cytotoxicity, dose response, cytotoxicity control, ATP luminescence, cherry-pick samples (AID 687005)
Settings: HEK293T viability, ATP luminescence (CellTiter-Glo), 48 h; at 23.5 µM (top of the series)

**Q.** For `COc1ccc(CN(C)C[C@@H]2Oc3ccc(NS(C)(=O)=O)cc3CC(=O)N([C@H](C)CO)C[C@H]2C)cc1`, which activity change, negative = cytotoxicity is on record?
**A.** Its activity change, negative = cytotoxicity is 1.11% (inactive).

**Q.** With `C[C@H]1CN([C@@H](C)CO)C(=O)Cc2cc(NC(=O)C3CC3)ccc2O[C@@H]1CN(C)C(=O)Nc1cccc2ccccc12` as the compound, how does the activity change, negative = cytotoxicity read?
**A.** The activity change, negative = cytotoxicity was -3.99% (inactive).

Same assay, conditions: HEK293T viability, ATP luminescence (CellTiter-Glo), 48 h; at 26 µM (top of the series)

**Q.** For `CC(C)NC(=O)Nc1ccc2c(c1)C(=O)N([C@@H](C)CO)C[C@H](C)[C@@H](CN(C)Cc1ccc3c(c1)OCO3)OCCCC[C@@H](C)O2`, which activity change, negative = cytotoxicity is on record?
**A.** The activity change, negative = cytotoxicity was -28.1% (inactive).

**Q.** With `CC=Cc1ccc2n(c1=O)C[C@H]1[C@H](CO)[C@@H](C(=O)NCc3ccc4c(c3)OCO4)[C@@H]2N1C(=O)C1CC1` (mixture of isomers) as the compound, how does the activity change, negative = cytotoxicity read?
**A.** The activity change, negative = cytotoxicity was -15.5% (inactive).

**Q.** With `C[C@H](CO)N1C[C@H](C)[C@@H](CN(C)C(=O)Nc2cccc3ccccc23)Oc2c(cccc2N(C)C)C1=O` as the compound, how does the activity change, negative = cytotoxicity read?
**A.** Its activity change, negative = cytotoxicity is 49.5% (inactive).

**Q.** With `COc1cccc(NC(=S)NC(=O)Cc2ccc(Cl)cc2)c1` as the compound, how does the activity change, negative = cytotoxicity read?
**A.** The activity change, negative = cytotoxicity was -6.68% (inactive).

**Q.** Which activity change, negative = cytotoxicity does the source give for `COc1ccccc1CNC(=O)C[C@@H]1C[C@@H]2c3cc(NC(=O)Nc4ccccc4F)ccc3O[C@@H]2[C@H](CO)O1` here?
**A.** The activity change, negative = cytotoxicity was 15.8% (inactive).

**Q.** For `COc1cccc(S(=O)(=O)Nc2ccc3c(c2)OC[C@H](C)NC[C@@H](C)[C@H](OC)CN(C)C3=O)c1`, which activity change, negative = cytotoxicity is on record?
**A.** The activity change, negative = cytotoxicity was -4.71% (inactive).

**Q.** Which activity change, negative = cytotoxicity does the source give for `CC=Cc1ccc2n(c1=O)C[C@H]1[C@H](CO)[C@@H](C(=O)N3CCOCC3)N(CC3CC3)[C@@H]21` (mixture of isomers) here?
**A.** Its activity change, negative = cytotoxicity is 2.31% (inactive).

**Q.** With `Fc1cccc(CCN2C(=S)NC[C@@H]2Cc2ccccc2)c1` as the compound, how does the activity change, negative = cytotoxicity read?
**A.** The activity change, negative = cytotoxicity was -28.1% (inactive).

**Q.** Which activity change, negative = cytotoxicity does the source give for `O=C(Cc1ccccc1)N[C@H]1C=C[C@@H](CC(=O)N2CCOCC2)O[C@H]1CO` here?
**A.** The activity change, negative = cytotoxicity was 8.54% (inactive).

**Q.** Which activity change, negative = cytotoxicity does the source give for `COc1ccccc1C(=O)Nc1ccc2c(c1)C(=O)N(C)C[C@@H](OC)[C@H](C)CN(C)[C@@H](C)CO2` here?
**A.** Its activity change, negative = cytotoxicity is 0.103% (inactive).

**Q.** Which activity change, negative = cytotoxicity does the source give for `O=C(NCC[C@H]1CC[C@@H](NS(=O)(=O)c2ccc(F)cc2)[C@H](CO)O1)c1ccc2c(c1)OCO2` here?
**A.** The activity change, negative = cytotoxicity was 1.86% (inactive).

**Q.** Which activity change, negative = cytotoxicity does the source give for `O=C(C[C@@H]1CC[C@@H](NC(=O)c2cccnc2)[C@@H](CO)O1)NCCN1CCCCC1` here?
**A.** The activity change, negative = cytotoxicity was -2.13% (inactive).

**Q.** For `CCC(=O)Nc1ccc2c(c1)C(=O)N(C)C[C@@H](OC)[C@H](C)CN[C@@H](C)CO2`, which activity change, negative = cytotoxicity is on record?
**A.** Its activity change, negative = cytotoxicity is 4.18% (inactive).

**Q.** Which activity change, negative = cytotoxicity does the source give for `CC(C)NC(=O)Nc1cccc2c1O[C@H](CN(C)C)[C@H](C)CN([C@@H](C)CO)C2=O` here?
**A.** Its activity change, negative = cytotoxicity is 22% (inactive).

**Q.** For `CO[C@@H]1CN(C)C(=O)c2cc(NC(=O)Nc3cccc(F)c3)ccc2OC[C@H](C)N(C)C[C@@H]1C`, which activity change, negative = cytotoxicity is on record?
**A.** Its activity change, negative = cytotoxicity is -0.56% (inactive).

**Q.** For `Cc1noc(C)c1S(=O)(=O)Nc1ccc2c(c1)C(=O)N([C@@H](C)CO)C[C@@H](C)[C@@H](CN(C)Cc1ccccc1)OCCCC[C@H](C)O2`, which activity change, negative = cytotoxicity is on record?
**A.** Its activity change, negative = cytotoxicity is -12.2% (inactive).

**Q.** With `CCCN(C)C[C@H]1OCCCC[C@@H](C)Oc2ccc(NC(=O)NC(C)C)cc2C(=O)N([C@@H](C)CO)C[C@H]1C` as the compound, how does the activity change, negative = cytotoxicity read?
**A.** The activity change, negative = cytotoxicity was -9.71% (inactive).

**Q.** With `CCCC#Cc1cnc2c(c1)C(=O)N([C@@H](C)CO)C[C@H](C)[C@H](CN(C)C(=O)Nc1cccc(F)c1)O2` as the compound, how does the activity change, negative = cytotoxicity read?
**A.** The activity change, negative = cytotoxicity was 42% (inactive).

**Q.** With `CC(C)NC(=O)N[C@H]1CC[C@@H](CCNC(=O)C2CC2)O[C@H]1CO` as the compound, how does the activity change, negative = cytotoxicity read?
**A.** Its activity change, negative = cytotoxicity is 6.21% (inactive).

**Q.** With `Cc1cccc(NC(=O)CN(C)C(=O)C2CCCC2)c1C` as the compound, how does the activity change, negative = cytotoxicity read?
**A.** The activity change, negative = cytotoxicity was -33.5% (inactive).

**Q.** Which activity change, negative = cytotoxicity does the source give for `CC(C)c1ccc(S(=O)(=O)N2CCN(CC(=O)Nc3ccc4c(c3)OCO4)CC2)cc1` here?
**A.** The activity change, negative = cytotoxicity was -0.379% (inactive).

**Q.** Which activity change, negative = cytotoxicity does the source give for `C[C@H](O)C#Cc1ccc([C@H]2[C@H](CO)N3CCCCN(CC4CCOCC4)C[C@@H]23)cc1` here?
**A.** Its activity change, negative = cytotoxicity is 21.6% (inactive).

**Q.** For `CC(C)C#Cc1ccc([C@@H]2[C@H](CO)N3CCCCN(C(=O)c4ccc5c(c4)OCO5)C[C@@H]23)cc1`, which activity change, negative = cytotoxicity is on record?
**A.** The activity change, negative = cytotoxicity was 28.2% (inactive).

**Q.** For `CO[C@@H](CN(C)Cc1ccc2c(c1)OCO2)[C@@H](C)CN(C(=O)c1ccccc1)[C@H](C)CO`, which activity change, negative = cytotoxicity is on record?
**A.** The activity change, negative = cytotoxicity was 29.3% (inactive).

**Q.** Which activity change, negative = cytotoxicity does the source give for `COc1ccc(CN(C)C[C@@H]2Oc3ccc(NC(=O)Nc4ccc(F)cc4)cc3CC(=O)N([C@H](C)CO)C[C@H]2C)cc1` here?
**A.** The activity change, negative = cytotoxicity was -7.45% (inactive).

**Q.** With `CO[C@@H]1CN(C)C(=O)c2ccc(NC(=O)NC(C)C)cc2OC[C@H](C)NC[C@@H]1C` as the compound, how does the activity change, negative = cytotoxicity read?
**A.** The activity change, negative = cytotoxicity was -4.93% (inactive).

**Q.** For `CC(C)NC(=O)Nc1ccc2c(c1)CC(=O)N([C@@H](C)CO)C[C@@H](C)[C@@H](CN(C)S(=O)(=O)c1ccc(Cl)cc1)O2`, which activity change, negative = cytotoxicity is on record?
**A.** The activity change, negative = cytotoxicity was 6.41% (inactive).

**Q.** With `CCc1ccc(C(C)NC(=S)NCc2ccc(F)cc2)cc1` (configuration not stated) as the compound, how does the activity change, negative = cytotoxicity read?
**A.** The activity change, negative = cytotoxicity was 17.2% (inactive).

**Q.** With `O=C(c1cccc(F)c1)N1CCCCN2[C@@H](CO)[C@H](c3ccc(-c4ccncc4)cc3)[C@@H]2C1` as the compound, how does the activity change, negative = cytotoxicity read?
**A.** Its activity change, negative = cytotoxicity is 2.55% (inactive).

**Q.** For `COc1ccc(CNC(=O)C[C@H]2CC[C@H]3[C@@H](COc4ccc(NC(=O)C5CC5)cc4C(=O)N3C)O2)cc1`, which activity change, negative = cytotoxicity is on record?
**A.** The activity change, negative = cytotoxicity was 26% (inactive).

**Q.** For `C[C@H](CO)N1C[C@H](C)[C@@H](CN(C)CC2CCOCC2)Oc2ncc(C#Cc3ccc(F)cc3)cc2C1=O`, which activity change, negative = cytotoxicity is on record?
**A.** The activity change, negative = cytotoxicity was -11.1% (inactive).

**Q.** Which activity change, negative = cytotoxicity does the source give for `Cc1noc(C)c1NC(=O)N(C)C[C@H]1OCCCC[C@@H](C)Oc2ccc(NC(=O)NC(C)C)cc2C(=O)N([C@H](C)CO)C[C@H]1C` here?
**A.** The activity change, negative = cytotoxicity was -10.9% (inactive).

**Q.** Which activity change, negative = cytotoxicity does the source give for `O=C(C[C@H]1CC[C@@H]2[C@H](COC[C@H](O)CN2CC2CCOCC2)O1)NCc1ccc(Cl)cc1` here?
**A.** The activity change, negative = cytotoxicity was 19% (inactive).

**Q.** Which activity change, negative = cytotoxicity does the source give for `CCC(C)(C(=O)NC1CCCCC1)N(C(=O)C1CCC(=O)N1)c1ccccc1` (configuration not stated) here?
**A.** The activity change, negative = cytotoxicity was 0.147% (inactive).

**Q.** With `C[C@H](CO)N1C[C@H](C)[C@H](CN(C)Cc2ccccc2)Oc2cc(C#Cc3ccccn3)ccc2S1(=O)=O` as the compound, how does the activity change, negative = cytotoxicity read?
**A.** Its activity change, negative = cytotoxicity is -48.6% (inactive).

**Q.** For `CC(C)NC(=O)N(C)C[C@H]1Oc2c(NC(=O)C3CCCCC3)cccc2C(=O)N([C@H](C)CO)C[C@H]1C`, which activity change, negative = cytotoxicity is on record?
**A.** Its activity change, negative = cytotoxicity is 5.22% (inactive).

**Q.** With `C/C=C/c1ccc([C@@H]2[C@@H](CNC(=O)C3CC3)N(C(=O)CC)[C@H]2CO)cc1` as the compound, how does the activity change, negative = cytotoxicity read?
**A.** Its activity change, negative = cytotoxicity is -5.25% (inactive).

**Q.** Which activity change, negative = cytotoxicity does the source give for `Cc1noc(C)c1NC(=O)Nc1cccc2c1O[C@@H](CN(C)S(=O)(=O)c1cn(C)cn1)[C@@H](C)CN([C@@H](C)CO)C2=O` here?
**A.** Its activity change, negative = cytotoxicity is -3.21% (inactive).

**Q.** For `COc1cccc(S(=O)(=O)N(C)C[C@@H]2Oc3ncc(-c4cccc(F)c4)cc3C(=O)N([C@H](C)CO)C[C@@H]2C)c1`, which activity change, negative = cytotoxicity is on record?
**A.** Its activity change, negative = cytotoxicity is -18.4% (inactive).

**Q.** Which activity change, negative = cytotoxicity does the source give for `CC(=O)c1ccc(OCC(=O)NCc2ccc(F)cc2)cc1` here?
**A.** The activity change, negative = cytotoxicity was 11% (inactive).

**Q.** With `CCCNC(=O)N(C)C[C@@H]1Oc2ncc(C#CC3CCCCC3)cc2C(=O)N([C@H](C)CO)C[C@@H]1C` as the compound, how does the activity change, negative = cytotoxicity read?
**A.** The activity change, negative = cytotoxicity was -14% (inactive).

**Q.** With `COc1ccccc1NC(=O)N[C@@H]1CC[C@H](CCn2cc(-c3ccccc3OC)nn2)O[C@H]1CO` as the compound, how does the activity change, negative = cytotoxicity read?
**A.** Its activity change, negative = cytotoxicity is -11.8% (inactive).

**Q.** With `CCC(=O)N1[C@H](CO)[C@H](c2ccccc2)[C@H]1CN(CC)C(=O)c1cccc(F)c1` as the compound, how does the activity change, negative = cytotoxicity read?
**A.** Its activity change, negative = cytotoxicity is -0.378% (inactive).

**Q.** Which activity change, negative = cytotoxicity does the source give for `CC(=O)NC[C@H]1[C@@H](c2ccc(C3=CCCC3)cc2)[C@@H](CO)N1C(=O)NC(C)C` here?
**A.** The activity change, negative = cytotoxicity was -31.1% (inactive).

Same assay, conditions: HEK293T viability, ATP luminescence (CellTiter-Glo), 48 h; at 42 µM (top of the series)

**Q.** Which activity change, negative = cytotoxicity does the source give for `CCc1ccc(NC(=O)C2NC(=O)CC2c2ccccc2)cc1` (configuration not stated) here?
**A.** The activity change, negative = cytotoxicity was -46.7% (inactive).
